# Test system: viral and/or fungal and/or bacterial
# Conditions: no test conditions given
substance,measurement,value
"1-hexadecanaminium, N,N,N,trimethyl-tricyclo[3.3.1.13,7]decane-2-acetate(1:1) [salt of the invention]",viral and/or fungal and/or bacterial inhibition action,greater than 4 log

# From patent EP4063344A1, “SALT OF 2-ADAMANTYL ACETIC ACID HAVING ANTI-VIRAL ACTIVITY, FORMULATIONS THEREOF AND USES THEREOF” (Sciamannini, Umbro, priority 2021, dated 2022)
